Assays:
[1] = Inhibition of radical generation by SOD, superoxide generated by light irradiation of riboflavin (ESR); format: biochemical
Description: To the aqueous solution thus prepared, superoxide dismutase (SOD) (Sigma), which is an enzyme that specifically scavenges superoxide, was added at 10 U/mL to separately prepare an aqueous solution with added SOD.
The aqueous solutions prepared in the present Example (1) (aqueous solutions with or without SOD) were each introduced into the sample tube of the electron spin resonance device JES-RE1X (JEOL Ltd.). Using a xenon lamp, the sample tube was irradiated with visible light of 1500 lux for 30 seconds. Subsequently, a measurement was made by ESR under the following measurement conditions to obtain a spectrum. The spectrum of the SOD-free aqueous solution was obtained as Spectrum A, and the spectrum of the aqueous solution with added SOD was obtained as Spectrum B. The results thus obtained are shown in FIG. 10. […]
Following a similar operation to Example 1 (2), each of the aqueous solutions thus prepared was measured by ESR to obtain a spectrum. Based on the spectrum thus obtained, the amount of a radical generated was quantified.
Based on the quantification results of the amount of a radical generated in the present Examples (1) and (2), the radical generation-inhibitory rate by SOD was calculated by the following formula 5. […]

[2] = Inhibition of radical generation by SOD, superoxide generated by xanthine oxidase (ESR); format: biochemical; settings: SOD 0.5, 1, 1.5 U/mL; hypoxanthine 0.39 mmol/L, xanthine oxidase 0.2 U/mL; compared with riboflavin system
Description: Into a 50 mmol/L phosphate buffer with pH 7.4, hypoxanthine, CYPMPO (Radical Research Inc.), and diethylenetriaminopentaacetic acid (DETAPAC) were each added at 0.39 mmol/L, 10 mmol/L, and 0.1 mmol/L, respectively, to prepare an aqueous solution (SOD-free aqueous solution). Further, to this aqueous solution, SOD (Sigma) was added at a concentration of 0.5 U/mL, 1 U/mL, and 1.5 U/mL to separately prepare aqueous solutions with added SOD.
To each of the SOD-free aqueous solution and aqueous solutions with added SOD thus prepared, xanthine oxidase was added at 0.2 U/mL. Following a similar operation to Example 1 (2), each of the aqueous solutions was measured by ESR to obtain a spectrum. Subsequently, based on the spectrum thus obtained, the amount of a radical generated was quantified. Measurement by ESR was performed 60 seconds after the addition of xanthine oxidase.
Based on the quantification results of the amount of a radical generated in the present Examples (1) and (2), the radical generation-inhibitory rate by SOD was calculated by the following formula 5.
Radical generation-inhibitory rate by SOD=(S0−S)/[…] (Formula 5)

## superoxide dismutase [SOD]
[1]; SOD 0.5, 1, 1.5 U/mL, light irradiation of riboflavin, compared with xanthine oxidase system
  Radical generation-inhibitory rate by SOD: approximately the same values
[1]; SOD 10 U/mL, riboflavin 1 μmol/L, EDTA 5 mmol/L, CYPMPO 10 mmol/L
  Superoxide scavenging (radicals generated with added SOD): generated a small amount of EDTA radicals but not superoxide
[2]
  Radical generation-inhibitory rate by SOD: approximately the same values

Reference: patent US20120255853A1, “Method for Producing Superoxide, Method for Evaluating Superoxide Scavenging Ability, Device for Producing Superoxide, and Device for Evaluating Superoxide Scavenging Ability” (Sapporo Medical University, priority 2009, published 2012)
